Results as given in ChEMBL document CHEMBL1201862, “PubChem BioAssay data set” (2004).
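Five compound concentrations were applied to cells in 96-well plates for 48 hours; endpoints were derived by simple linear interpolation of the resulting dose-response curve. The concentration for 50% growth inhibition is given as GI50.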 The source made the active and inactive calls. No stated cut-off is given here; in the data, active = GI50 up to about 1.1 µM and inactive = higher.

How the values were obtained:
Experiment in all cases: NCI anticancer screen, dose series, 48 h
[1] = system: A498
[2] = system: COLO 205
[3] = system: EKVX
[4] = system: HCT-15
[5] = system: Hs-578T
[6] = system: M14
[7] = system: MCF7
[8] = system: NCI-H226
[9] = system: NCI-H23
[10] = system: NCI-H460
[11] = system: OVCAR-8
[12] = system: SF-295
[13] = system: SK-MEL-28
[14] = system: SK-MEL-2
[15] = system: SK-OV-3
[16] = system: SR
[17] = system: SW-620
[18] = system: T47D
[19] = system: TK-10
[20] = system: OVCAR-4

SMILES | GI50 [1] | GI50 [2] | GI50 [3] | GI50 [4] [µM] | GI50 [5] | GI50 [6] | GI50 [7] | GI50 [8] | GI50 [9] | GI50 [10] | GI50 [11] | GI50 [12] | GI50 [13] | GI50 [14] | GI50 [15] | GI50 [16] | GI50 [17] | GI50 [18] | GI50 [19] | GI50 [20]
CSc1ccc(/C=C/c2ccnc3ccccc23)cc1 | 15.5 µM (inactive) | 11.3 µM (inactive) | 10.4 µM (inactive) | 11.5 | 20.9 µM (inactive) | 9.04 µM (inactive) | 13.6 µM (inactive) | 14.5 µM (inactive) | 11.8 µM (inactive) | 12.2 µM (inactive) | 15.5 µM (inactive) | 14.4 µM (inactive) | 17.4 µM (inactive) | 16.1 µM (inactive) | 16 µM (inactive) | 5.64 µM (inactive) | 14 µM (inactive) | 5.58 µM (inactive) | 13.9 µM (inactive) | 
O=C1OC2(CCCCC2)C(Oc2ccc(Cl)cc2)=C1F | 47.3 µM (inactive) | 26.5 µM (inactive) | 38.2 µM (inactive) |  | 50 µM (inactive) | 33 µM (inactive) | 37.8 µM (inactive) |  |  | 41.1 µM (inactive) | 51.9 µM (inactive) | 45.4 µM (inactive) | 23.7 µM (inactive) | 23.8 µM (inactive) | > 100 µM (inactive) | 33.5 µM (inactive) | 23.6 µM (inactive) | 37.2 µM (inactive) | 85.1 µM (inactive) | 
CC1(C)CC(=O)c2c(-c3ccc(Cl)cc3)c(C#N)c(=S)n(C3OC(CO)C(O)C(O)C3O)c2C1 (centres undefined) | 34 µM (inactive) | 34 µM (inactive) |  | 21.4 | 25.4 µM (inactive) | 45.7 µM (inactive) | 33.7 µM (inactive) | 20.9 µM (inactive) | 50.8 µM (inactive) | 30.3 µM (inactive) | 35.7 µM (inactive) | 38 µM (inactive) | 34.8 µM (inactive) | 19 µM (inactive) |  | 22 µM (inactive) | 36.6 µM (inactive) | 18.6 µM (inactive) | 53.3 µM (inactive) | 49.2 µM (inactive)
N=C(N)N/N=C/c1cnn(C(=N)N)c1 | > 100 µM (inactive) | > 100 µM (inactive) | 45.7 µM (inactive) | > 100 | > 100 µM (inactive) | > 100 µM (inactive) | > 100 µM (inactive) | > 100 µM (inactive) | > 100 µM (inactive) | > 100 µM (inactive) | > 100 µM (inactive) | > 100 µM (inactive) | > 100 µM (inactive) |  | > 100 µM (inactive) | > 100 µM (inactive) | > 100 µM (inactive) | > 100 µM (inactive) | > 100 µM (inactive) | > 100 µM (inactive)
CCOC(=O)NC(C(C(=O)OCC)C(=O)OCC)(C(F)(F)F)C(F)(F)F | > 100 µM (inactive) | > 100 µM (inactive) | > 100 µM (inactive) | > 100 | > 100 µM (inactive) | > 100 µM (inactive) | > 100 µM (inactive) | > 100 µM (inactive) | > 100 µM (inactive) | > 100 µM (inactive) | > 100 µM (inactive) | > 100 µM (inactive) | > 100 µM (inactive) | > 100 µM (inactive) |  | > 100 µM (inactive) | > 100 µM (inactive) | > 100 µM (inactive) | > 100 µM (inactive) | > 100 µM (inactive)
CC1=NN(C(=O)CC(=O)Nc2ccccc2Cl)C(=O)C1/N=N/c1ccc(C(=O)O)cc1 (centres undefined) | > 100 µM (inactive) | > 100 µM (inactive) | 4.46 µM (inactive) | > 100 | > 100 µM (inactive) | > 100 µM (inactive) | > 100 µM (inactive) |  | > 100 µM (inactive) | > 100 µM (inactive) | > 100 µM (inactive) | > 100 µM (inactive) | > 100 µM (inactive) | > 100 µM (inactive) |  | 51.1 µM (inactive) | > 100 µM (inactive) | 53.2 µM (inactive) | > 100 µM (inactive) | > 100 µM (inactive)
